# In patent US8722714B2, “Oxazolidine derivatives as NMDA antagonists” (The Honk Kong University of Science and Technology, priority 2008, dated 2014):
# Key:
# [1] = test system: rat primary cortical neurons; assay: Neuron survival assay against NMDA insult (LDH release); type: cell-based; settings: NMDA 20 μM; for protection of rat primary cortical neurons from NMDA insults (LDH release, fold change vs DMSO): compounds 10-30 μg/ml, 11 DIV; for cell death (LDH release, cell cytotoxicity vs DMSO): compound 10 μg/mL, DIV 11
# Method: Primary cortical and hippocampal neurons were prepared from embryonic day 18 (E18) Sprague-Dawley rats. Neurons were plated on 24-well plate (TPP, Corning) at a density of 2×10^5 cells per well using Neurobasal medium (Invitrogen) supplemented with 2% B27 (Invitrogen). Neurons at 11-12 days in vitro (12 DIV) were subjected to drug treatment. Neurons were pretreated with the test compound for 2 hours prior to NMDA treatment. 0.1 μM (+)-MK-801 Hydrogen Maleate (Sigma) was added as a positive control. Briefly, the neurons were rinsed with Locke's solution (5 mM potassium chloride, 128 mM sodium chloride, 2.7 mM calcium chloride, 1 mM di-sodium hydrogen orthophosphate, 5 mM HEPES and 10 mM glucose in Milli-Q water) without Mg^2+, and incubated with addition of glycine (10 μM) for 15 minutes. After the incubation, the neurons were co-treated with the test compound (dissolved in Locke's plus glycine solution) and NMDA (20 μM; Sigma) for 20 minutes. Neurons were rinsed with Locke's plus Mg^2+ and replaced with fresh growth medium. The cell death was assayed and quantified using the lactate dehydrogenase release assay (Roche) after 24 hours.
# Embryonic rat cortical neurons (11 DIV) were treated with NMDA (20 μM) in the absence or presence of the LC series of compounds (10-30 μg/ml). […] LDH release in the medium after overnight incubation was measured and fold change was calculated when compared to the solvent control, DMSO.
# Embryonic rat cortical neurons (DIV 11) were treated with NMDA (20 μM) in the absence or presence of LC-01 or LC-02 (μg/mL). LDH release in the medium after overnight incubation was measured and cell cytotoxicity was calculated in percentage when compared to the solvent control, DMSO.
# Embryonic rat cortical neurons (DIV 11) were treated with NMDA (20 μM) in the absence or presence of LC-06 (μg/mL). LDH release in the medium after overnight incubation was measured and cell cytotoxicity was calculated in percentage when compared to the solvent control, DMSO.
# Embryonic rat cortical neurons (11 DIV) were treated with NMDA (20 μM) in the absence or presence of LC-24 or LC-25 (μg/mL). LDH release in the medium after overnight incubation was measured and cell cytotoxicity was calculated in percentage when compared to solvent control (DMSO).
# NMDA receptor = assay: Whole-cell patch clamp of NMDA-induced current in hippocampal neurons; type: cell-based, rat; settings: compound 500 uM co-applied with NMDA 200 uM
# Method: Hippocampal neurons were prepared from embryonic day 18 Sprague-Dawley rats. After the hippocampus had been removed from the brain, isolated cells were plated onto Poly d-Lysine (PDL) (P0899, Sigma)-coated 35 mm dishes (153066, NUNC) at a density of 3×10^5 cell per plate using Neurobasal Medium (NB) (21103-049, Gibco) with B27 supplement (17504-044, Gibco), penicillin/streptomycin (15140, Gibco) and 1 mM L-glutamine (25030, Gibco). The cell culture was incubated at 37° C. in a humidified atmosphere of 5% CO2 in air. Half of the medium was changed with NB, B27 and 50 μM L-glutamine every 2 to 3 days. On day 12 in vitro (12 DIV), whole-cell patch clamp was performed. The internal solution contained 120 mM cesium chloride, 20 mM tetraethylammonium chloride, 2 mM magnesium chloride, 1 mM calcium chloride and 10 mM HEPES (pH 7.2). The external solution contained 137 mM sodium chloride, 1 mM sodium bicarbonate, 0.34 mM sodium phosphate dibasic, 5.37 mM potassium chloride, 0.44 mM potassium phosphate monobasic, 2.5 mM HEPES (pH 7.4) and 22.2 mM glucose. Samples mixed with 50 μM NMDA (M3262, Sigma) were arranged in linear array of up to 8 individual controlled pipes (List Medical, Germany) which were connected to solution reservoirs. Memantine (10 μM, M9292, Sigma) was used as a positive control. Pipettes were fire-polished to produce a pipette resistance of 3-5 MΩ. Holding potential of patched cells was kept at −80 mV and currents were recorded using Axopatch-200B amplifier (Axon Instruments, USA). Tetrodotoxin (5 μM) and bicuculline methiodide (20 μM) (0109, Tocris) were present in the bath solution to block synaptic transmission mediated by voltage-gated sodium channels and […], respectively. Data was analyzed by pClamp9 software and percentage of inhibition on NMDA-induced current was represented in comparison to solvent control.
# The NMDA receptor is a gated ion channel, which allows inflow of current during a nerve impulse. Antagonists to the receptor would prevent the inflow of current.
# In FIG. 1A, hippocampal neurons from embryonic day 18 rats were isolated, trypsinized, plated onto 35-mm plates at a density of 3×10^4 cells/plate and cultured in Neurobasal medium (NB) supplemented with B27 nutrient. Rat hippocampal neurons (10-14 DIV) were treated with NMDA (50 μM) in the absence or presence of the compound LC-02 (10 μg/mL). Data is presented as % of NMDA-induced current. DMSO is the solvent control.
# (§1) In FIG. 1B, NMDA antagonistic effect of LC-02 on current responses of a single hippocampal neuron. NMDA (200 uM) was applied for 2.5 sec every 30 sec but these inter-response intervals have been deleted from the above figure for a better resolution of the kinetics of individual responses (blank space in trace). LC-02 (500 uM) was co-applied with NMDA.
# In FIG. 1C, effects of LC-02 on pooled NMDA current responses. Normalized peak and plateau currents are shown in the absence (DMSO) and presence of LC-02.
# as §1, with “8, (a)” for “1B,”, “LC-06” for “LC-02”, “NMDA. […] (b) Effects of LC-06 on pooled NMDA current responses. Normalized peak and plateau currents are shown in the absence (DMSO) and presence of LC-06.” for “NMDA.”
# as §1, with “9, (a)” for “1B,”, “LC-24” for “LC-02”, “NMDA. […] (b) Effects of LC-24 on pooled NMDA current responses. Normalized peak and plateau currents are shown in the absence (DMSO) and presence of LC-24. […]” for “NMDA.”
Structure (SMILES),"protection of rat primary cortical neurons from NMDA insults (LDH release, fold change vs DMSO) [1]","cell death (LDH release, cell cytotoxicity vs DMSO) [1]","pooled NMDA current responses (normalized peak and plateau currents) (NMDA receptor; vs DMSO, n=6)",recovery of NMDA-induced current after compound was washed out (NMDA receptor; single hippocampal neuron)
CC[C@@H]1N[C@@H](CC(C)C)C(CC)(CC)O1 [LC-01],significantly protected,cell death was markedly reduced,,
CCC(C)[C@@H]1N[C@@H](CC)OC1(CC)CC (stereo partly shown) [LC-09],weaker neuroprotective effects,,,
CCC(C)[C@@H]1N[C@H](CC)OC1(CC)CC (stereo partly shown) [LC-10],weaker neuroprotective effects,,,
CCC[C@@H]1N[C@@H](C(C)CC)C(CC)(CC)O1 (stereo partly shown) [LC-11],weaker neuroprotective effects,,,
CCC[C@H]1N[C@@H](C(C)CC)C(CC)(CC)O1 (stereo partly shown) [LC-12],weaker neuroprotective effects,,,
CCCC1(CCC)O[C@@H](CC)N[C@H]1C(C)CC (stereo partly shown) [LC-14],weaker neuroprotective effects,,,
CCC[C@H]1N[C@@H](C(C)CC)C(CCC)(CCC)O1 (stereo partly shown) [LC-15],weaker neuroprotective effects,,,
CCCC1(CCC)O[C@@H](c2ccccc2)N[C@H]1C(C)CC (stereo partly shown) [LC-16],weaker neuroprotective effects,,,
CCC[C@H]1N[C@@H](Cc2ccccc2)C(CC)(CC)O1 [LC-25],significantly protected,cell death was markedly reduced,significantly inhibits NMDA-induced current,Partial recovery of NMDA-induced current
